Strand notation (5' to 3'): a small letter for the sugar, then the base; units joined by * are phosphorothioate-linked, units joined directly phosphodiester-linked; [ ] holds rarer units or linkages, { } end groups; capitals alone tell only the bases. e = 2'-O-(2-methoxyethyl) (MOE); k = constrained ethyl (cEt); [5mC] = 5-methylcytosine; d = 2'-deoxy (DNA)

The series relates to Yap1 mRNA. The series is described as follows: Antisense inhibition of human Yap1 in SNU-449 cells by modified oligonucleotides, single dose (Example 5, RTS36584). The class given is cell-based. How it is done: Modified oligonucleotides with additional chemistry modifications were designed to target a Yap1 nucleic acid and were tested for their effect on Yap1 mRNA level in SNU-449 cells. The modified oligonucleotides were tested in a series of experiments that had similar culture conditions. Cultured SNU-449 cells at a density of 10,000 cells per well were treated using free uptake with 2,000 nM of modified oligonucleotide. After a treatment period of approximately 48 hours, RNA was isolated from the cells and Yap1 mRNA levels were measured by quantitative real-time RTPCR. Human primer probe set RTS36584 was used to measure mRNA levels. Yap1 mRNA levels were normalized to total RNA content, as measured by RIBOGREEN®. Results are presented in the tables below as percent control of the amount of Yap1 mRNA relative to untreated control cells (% UTC). The modified oligonucleotides with percent control values marked with an asterisk (*) target the amplicon region of the primer probe set. Additional assays may be used to measure the potency and efficacy of the modified oligonucleotides targeting the amplicon region.
Several different chemistry modifications were tested, which are specified in the Chemistry Notation column of the tables below, wherein the notation “d” refers to a 2′-deoxyribose sugar, the notation “s” refers to a phosphorothioate (P═S) internucleoside linkage, the notation “k” refers to a cEt modified sugar, the notation “y” refers to a 2′-O-methyl ribose sugar, the notation “e” refers to a MOE modified sugar, and the notation “^mC” refers to a 5-methylcytosine.
“Start site” indicates the 5′-most nucleoside to which the gapmer is targeted in the human gene sequence. “Stop site” indicates the 3′-most nucleoside to which the gapmer is targeted human gene sequence. […] Activity of the modified oligonucleotide may be defined in a different experiment.

[1] abbreviates: Table 48, Yap1 mRNA level relative to untreated control, modified oligonucleotides targeting SEQ ID NO.: 1 and 2.
Where [2] appears, read: Table 39, SNU-449 cells, 10,000 cells per well, free uptake, 2,000 nM oligonucleotide, approx. 48 hours, RTS36584, normalized to RIBOGREEN, Yap1 mRNA relative to untreated control.
Setting [3] is: Table 42 (separate experiment), SNU-449 cells, 10,000 cells per well, free uptake, 2,000 nM modified oligonucleotide, approximately 48 hours, RTS36584, normalized to RIBOGREEN, Yap1 mRNA relative to untreated control cells.
The mark [4] stands for this setting: Table 43 experiment, SNU-449 cells, 10,000 cells per well, free uptake, 2,000 nM, approximately 48 hours, RTS36584, Yap1 mRNA normalized to RIBOGREEN, relative to untreated control cells.
The mark [5] stands for this setting: Table 45, Yap1 mRNA as percent of untreated control, SNU-449 cells, single dose.
The mark [6] stands for this setting: Table 46, Yap1 mRNA as percent of untreated control, SNU-449 cells, single dose.
Setting [7] is: Table 49, Yap1 mRNA level relative to untreated control, modified oligonucleotides targeting SEQ ID NO.: 1 and 2.
Setting [8] is: Table 50, Yap1 mRNA remaining as percent of untreated control (UT), SNU-449 cells, single dose.
[9] abbreviates: Yap1 mRNA, percent of untreated control, modified oligonucleotides targeting SEQ ID NO: 1 and 2, Table 47.

On to “1009395 (k[5mC]*kT*kG*dA*dG*dG*dT*dA*dT*dA*dA*d[5mC]*dT*kG*kG*kG; antisense) [Compound 1009395]”, for which the “YAP1 (% UT)” value under setting [1] worked out at 43 % UT.
With “1009396 (k[5mC]*kA*k[5mC]*dT*dG*dA*dG*dG*dT*dA*dT*dA*dA*k[5mC]*kT*kG; antisense) [Compound 1009396]”, the “YAP1 (% UT)” value under setting [1] was 41 % UT.
For “1009397 (kA*kA*k[5mC]*dA*d[5mC]*dT*dG*dA*dG*dG*dT*dA*dT*kA*kA*k[5mC]; antisense) [Compound 1009397]”, under setting [1], the “YAP1 (% UT)” value was found to be 44 % UT.
For the substance “1074461 (kG*kA*kA*dA*dT*dT*dG*dT*d[5mC]*dT*d[5mC]*dA*dT*kG*k[5mC]*k[5mC]) [Compound 1074461]”, the “YAP1 (% UTC)” value is, setting by setting: under setting [2], 7 % UTC; (Table 40 (separate experiment), SNU-449 cells, 10,000 cells per well, free uptake, 2,000 nM oligonucleotide, approx. 48 hours, RTS36584, normalized to RIBOGREEN, Yap1 mRNA relative to untreated control) 9 % UTC; (Table 41, SNU-449 cells, 10,000 cells per well, free uptake, 2,000 nM modified oligonucleotide, approximately 48 hours, RTS36584, normalized to RIBOGREEN, Yap1 mRNA relative to untreated control cells) 12 % UTC; under setting [3], 11 % UTC; under setting [4], 11 % UTC; (Table 44 experiment, SNU-449 cells, 10,000 cells per well, free uptake, 2,000 nM, approximately 48 hours, RTS36584, Yap1 mRNA normalized to RIBOGREEN, relative to untreated control cells) 7 % UTC. Further, under setting [5], the “YAP1 (% UTC)” value is recorded as 9 % UTC. In addition, the “YAP1 (% UT)” value under setting [6] was 14 % UT; the “YAP1 (% UT)” value under setting [1] is on record as 20 % UT; the “YAP1 (% UT)” value under setting [7] stood at 10 % UT; the “YAP1 (% UT)” value under setting [8] came out at 16 % UT; the “YAP1 (% UT)” value (Table 51, Yap1 mRNA remaining as percent of untreated control (UT), SNU-449 cells, single dose) turned out to be 5 % UT; the “YAP1 (% UT)” value (Table 52, Yap1 mRNA, modified oligonucleotides targeting SEQ ID NO: 1 and 2) is reported as 15 % UT. Moreover, under setting [9], the “YAP1 (% UT)” value worked out at 5 % UT.
Regarding “1074462 (kG*kG*kA*dA*dA*dT*dT*dG*dT*d[5mC]*dT*d[5mC]*dA*kT*kG*k[5mC]; antisense) [Compound 1074462]”, the “YAP1 (% UT)” value under setting [9] is given as 7 % UT.
For “1074463 (kT*kA*kG*dA*dG*dT*dA*dT*dG*dT*dG*dG*d[5mC]*kA*kA*kT; antisense) [Compound 1074463]”, the “YAP1 (% UT)” value under setting [9] worked out at 20 % UT.
Same read-out and setting: the same measure for “1074798 (kG*k[5mC]*kT*dT*dT*dG*dG*dA*dA*dG*dA*dT*d[5mC]*kT*kG*kA) [Compound 1074798]”: 19 % UT.
Still for that read-out and setting: the result for “1074799 (kT*kG*k[5mC]*dT*dT*dT*dG*dG*dA*dA*dG*dA*dT*k[5mC]*kT*kG) [Compound 1074799]” reads 21 % UT; that for “1076186 (kA*kT*kT*dT*dA*dG*dG*dA*dT*dG*d[5mC]*dA*dT*kG*kG*kT) [Compound 1076186]”, 31 % UT.
Regarding “1076187 (kG*kA*kT*dT*dT*dA*dG*dG*dA*dT*dG*d[5mC]*dA*kT*kG*kG; antisense) [Compound 1076187]”, under setting [9], the “YAP1 (% UT)” value turned out to be 17 % UT.
“1076439 (k[5mC]*kT*kT*dA*dT*dA*dT*dG*dG*dT*dT*dT*dT*kG*kT*kG) [Compound 1076439]”: the “YAP1 (% UT)” value under setting [1] was 31 % UT.
Take “1095379 (antisense kA*d[5mC]*dT*dG*dA*dG*dG*dT*dA*dT*dA*kA*e[5mC]*kT*eG*kG) [Compound 1095379]”: the “YAP1 (% UTC)” value under setting [2] was 52 % UTC.
For “1095397 (antisense kT*dG*dA*dG*dG*dT*dA*dT*dA*dA*d[5mC]*kT*eG*kG*eG*k[5mC]) [Compound 1095397]”, the “YAP1 (% UTC)” value under setting [2] came to 53 % UTC.
As for “1095398 (antisense k[5mC]*dT*dG*dA*dG*dG*dT*dA*dT*dA*dA*k[5mC]*eT*kG*eG*kG) [Compound 1095398]”, the “YAP1 (% UTC)” value under setting [2] was found to be 38 % UTC.
On to “1095399 (antisense k[5mC]*dA*d[5mC]*dT*dG*dA*dG*dG*dT*dA*dT*kA*eA*k[5mC]*eT*kG) [Compound 1095399]”, for which, under setting [2], the “YAP1 (% UTC)” value is given as 46 % UTC.
As for “1095407 (antisense kA*k[5mC]*dT*dG*dA*dG*dG*dT*dA*dT*dA*kA*e[5mC]*kT*eG*kG) [Compound 1095407]”, under setting [6], the “YAP1 (% UT)” value was 54 % UT.
For “1095425 (antisense kT*kG*dA*dG*dG*dT*dA*dT*dA*dA*d[5mC]*kT*eG*kG*eG*k[5mC]) [Compound 1095425]”, the “YAP1 (% UT)” value under setting [6] is listed as 57 % UT.
Same read-out and setting: the same measure for “1095426 (antisense k[5mC]*kT*dG*dA*dG*dG*dT*dA*dT*dA*dA*k[5mC]*eT*kG*eG*kG) [Compound 1095426]”: 54 % UT; for “1095427 (antisense k[5mC]*kA*d[5mC]*dT*dG*dA*dG*dG*dT*dA*dT*kA*eA*k[5mC]*eT*kG) [Compound 1095427]”: 45 % UT.
Regarding “1095435 (antisense kA*k[5mC]*kT*dG*dA*dG*dG*dT*dA*dT*dA*dA*k[5mC]*kT*kG*eG) [Compound 1095435]”, the “YAP1 (% UT)” value under setting [8] turned out to be 39 % UT.
Consider “1095453 (antisense kT*kG*kA*dG*dG*dT*dA*dT*dA*dA*d[5mC]*dT*kG*kG*kG*e[5mC]) [Compound 1095453]”, for which the “YAP1 (% UT)” value under setting [8] came out at 32 % UT.
As for “1095454 (antisense k[5mC]*kT*kG*dA*dG*dG*dT*dA*dT*dA*dA*d[5mC]*kT*kG*kG*eG) [Compound 1095454]”, the “YAP1 (% UT)” value under setting [8] is 47 % UT.
In the case of “1095463 (antisense kA*k[5mC]*dT*dG*dA*dG*dG*dT*dA*dT*dA*dA*k[5mC]*eT*kG*eG) [Compound 1095463]”, the “YAP1 (% UTC)” value under setting [3] was found to be 37 % UTC.
Same read-out and setting: the result for “1095481 (antisense kT*kG*dA*dG*dG*dT*dA*dT*dA*dA*d[5mC]*dT*kG*eG*kG*e[5mC]) [Compound 1095481]” reads 21 % UTC; that for “1095482 (antisense k[5mC]*kT*dG*dA*dG*dG*dT*dA*dT*dA*dA*d[5mC]*kT*eG*kG*eG) [Compound 1095482]”, 72 % UTC; that for “1095483 (antisense k[5mC]*kA*d[5mC]*dT*dG*dA*dG*dG*dT*dA*dT*dA*kA*e[5mC]*kT*eG) [Compound 1095483]”, 101 % UTC.
For the substance “1095491 (antisense kA*k[5mC]*dT*dG*dA*dG*dG*dT*dA*dT*dA*kA*d[5mC]*kT*dG*kG) [Compound 1095491]”, under setting [5], the “YAP1 (% UTC)” value stood at 65 % UTC.
Still for that read-out and setting: the same measure for “1095509 (antisense kT*kG*dA*dG*dG*dT*dA*dT*dA*dA*d[5mC]*kT*dG*kG*dG*k[5mC]) [Compound 1095509]”: 29 % UTC; for “1095510 (antisense k[5mC]*kT*dG*dA*dG*dG*dT*dA*dT*dA*dA*k[5mC]*dT*kG*dG*kG) [Compound 1095510]”: 35 % UTC; for “1095511 (antisense k[5mC]*kA*d[5mC]*dT*dG*dA*dG*dG*dT*dA*dT*kA*dA*k[5mC]*dT*kG) [Compound 1095511]”: 46 % UTC.
On to “1095547 (antisense kA*k[5mC]*kT*dG*dA*dG*dG*dT*dA*dT*dA*dA*k[5mC]*eT*kG*eG) [Compound 1095547]”, for which the “YAP1 (% UT)” value under setting [7] is recorded as 42 % UT.
In the case of “1095565 (antisense kT*kG*kA*dG*dG*dT*dA*dT*dA*dA*d[5mC]*dT*kG*eG*kG*e[5mC]) [Compound 1095565]”, the “YAP1 (% UT)” value under setting [7] stood at 25 % UT.
On the same count and under the same terms, the same measure for “1095566 (antisense CTGAGGTATAACTGGG; chemistry not fully specified) [Compound 1095566]”: 47 % UT; for “1095567 (antisense k[5mC]*kA*k[5mC]*dT*dG*dA*dG*dG*dT*dA*dT*dA*kA*e[5mC]*kT*eG) [Compound 1095567]”: 92 % UT.
Regarding “1095575 (antisense kA*k[5mC]*dT*dG*dA*dG*dG*dT*dA*dT*dA*eA*e[5mC]*eT*kG*kG) [Compound 1095575]”, under setting [4], the “YAP1 (% UTC)” value was found to be 55 % UTC.
For “1095593 (antisense kT*kG*dA*dG*dG*dT*dA*dT*dA*dA*d[5mC]*eT*eG*eG*kG*k[5mC]) [Compound 1095593]”, the “YAP1 (% UTC)” value under setting [4] worked out at 16 % UTC.
